Laboratory results as given in US9926281B2 (priority 2014, dated 2018).
Where two headings read alike, the source gives them in different places.

Columns and labels:
human ADAMTS-5 [1] = molecular target: T1, human ADAMTS-5 (Homo sapiens (Human), UniProt Q9UNA0); conditions: read-out: hADAMTS-5 potency IC50
rnADAMTS-5 (1-564-6H) = rnADAMTS-5 (1-564-6H) (Rattus norvegicus, UniProt Q6TY19); conditions: read-out: Rat ADAMTS-5 potency IC50
human TACE = human TACE (Homo sapiens (Human), UniProt P78536); conditions: read-out: TACE potency IC50
human TACE, sequence (P78536 whole entry, looked up, change not shown): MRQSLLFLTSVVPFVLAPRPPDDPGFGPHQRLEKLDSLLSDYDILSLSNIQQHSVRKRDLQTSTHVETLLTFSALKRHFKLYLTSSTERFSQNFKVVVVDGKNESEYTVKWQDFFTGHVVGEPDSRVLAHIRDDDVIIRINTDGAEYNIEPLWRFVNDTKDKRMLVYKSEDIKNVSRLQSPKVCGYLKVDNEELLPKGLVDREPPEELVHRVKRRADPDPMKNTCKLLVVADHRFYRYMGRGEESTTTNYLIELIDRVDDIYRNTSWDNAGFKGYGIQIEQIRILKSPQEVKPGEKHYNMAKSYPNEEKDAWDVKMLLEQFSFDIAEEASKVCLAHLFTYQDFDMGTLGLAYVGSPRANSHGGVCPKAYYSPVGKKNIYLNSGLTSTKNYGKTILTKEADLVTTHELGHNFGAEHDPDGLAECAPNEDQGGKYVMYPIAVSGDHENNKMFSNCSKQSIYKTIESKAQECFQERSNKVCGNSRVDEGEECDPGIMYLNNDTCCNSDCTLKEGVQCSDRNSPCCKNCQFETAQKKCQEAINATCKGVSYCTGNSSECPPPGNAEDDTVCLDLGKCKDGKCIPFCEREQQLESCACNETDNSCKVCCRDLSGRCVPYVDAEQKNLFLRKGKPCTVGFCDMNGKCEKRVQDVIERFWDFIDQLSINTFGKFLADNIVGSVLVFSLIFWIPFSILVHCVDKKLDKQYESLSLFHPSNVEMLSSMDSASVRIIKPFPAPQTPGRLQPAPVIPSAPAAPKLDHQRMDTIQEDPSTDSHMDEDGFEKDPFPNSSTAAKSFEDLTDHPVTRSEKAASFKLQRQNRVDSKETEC

human ADAMTS-5 [2] = molecular target: T1, human ADAMTS-5; conditions: read-out: hADAMTS-5 potency IC50; remark: listed apart in the source
Protocol: Finally, the fluorescence is read on the Envision (Perkin Elmer) after an incubation of 90 min at 37° C.

human MMP13 = human MMP13 (Homo sapiens (Human), UniProt P45452); conditions: read-out: hMMP-13 potency IC50
Protocol: Human MMP13 is preactivated by incubated the enzyme in the same buffer complemented with 1 mM freshly prepared p-Aminophenylmercuric acetate (AMPA) for 1 hour at 37° C.

T1 sequence (Q9UNA0 262-930): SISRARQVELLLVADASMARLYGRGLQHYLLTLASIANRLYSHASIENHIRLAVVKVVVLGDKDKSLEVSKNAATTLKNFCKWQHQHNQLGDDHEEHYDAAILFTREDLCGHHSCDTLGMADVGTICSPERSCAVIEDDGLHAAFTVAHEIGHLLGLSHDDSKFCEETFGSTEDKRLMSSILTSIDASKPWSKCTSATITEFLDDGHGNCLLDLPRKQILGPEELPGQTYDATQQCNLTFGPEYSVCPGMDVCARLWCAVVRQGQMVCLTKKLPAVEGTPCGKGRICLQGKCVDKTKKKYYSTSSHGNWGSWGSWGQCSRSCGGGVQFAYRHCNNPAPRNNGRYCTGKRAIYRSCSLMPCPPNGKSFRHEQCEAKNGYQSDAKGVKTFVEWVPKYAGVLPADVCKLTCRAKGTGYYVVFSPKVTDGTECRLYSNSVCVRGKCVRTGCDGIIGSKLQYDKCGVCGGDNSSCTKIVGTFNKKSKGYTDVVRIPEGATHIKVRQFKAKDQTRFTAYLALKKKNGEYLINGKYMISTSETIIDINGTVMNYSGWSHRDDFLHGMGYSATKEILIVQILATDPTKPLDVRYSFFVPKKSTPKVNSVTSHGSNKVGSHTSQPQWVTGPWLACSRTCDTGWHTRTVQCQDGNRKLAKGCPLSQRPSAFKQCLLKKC

Structure (SMILES) | IC50 (human ADAMTS-5 [1]) | IC50 (rnADAMTS-5 (1-564-6H)) | IC50 (human TACE) | IC50 (human ADAMTS-5 [2]) | IC50 (human MMP13)
O=C1NC(=O)C(CCC(=O)N2CCN(c3ccc4ccccc4n3)CC2)(c2ccccc2)N1 (stereo not drawn) [compound 15, 5-[3-oxo-3-[4-(2-quinolyl)piperazin-1-yl]propyl]-5-phenyl-imidazolidine-2,4-dione] | > 4000 nM | > 4000 nM |  |  | 
Cc1cccc(C)c1N1CCN(C(=O)CCC2(c3ccccc3)NC(=O)NC2=O)CC1 (stereo not drawn) [compound 22, 5-[3-[4-(2,6-dimethylphenyl)piperazin-1-yl]-3-oxo-propyl]-5-phenyl-imidazolidine-2,4-dione] | > 3790 nM | 3900 nM |  |  | 
Cc1cc(N2CCN(C(=O)CCC3(c4ccccc4)NC(=O)NC3=O)CC2)ccc1[N+](=O)[O-] (stereo not drawn) [compound 23, 5-[3-[4-(3-methyl-4-nitro-phenyl)piperazin-1-yl]-3-oxo-propyl]-5-phenyl-imidazolidine-2,4-dione] | 157 nM | 158 nM |  |  | 
O=C1NC(=O)C(CCC(=O)N2CCN(c3ccc4scnc4c3)CC2)(c2ccccc2)N1 (stereo not drawn) [compound 26, 5-[3-[4-(1,3-benzothiazol-5-yl)piperazin-1-yl]-3-oxo-propyl]-5-phenyl-imidazolidine-2,4-dione] | 706 nM |  | > 10000 nM |  | 
CC1(CCC(=O)N2CCN(c3ccccc3C#N)CC2)NC(=O)NC1=O (stereo not drawn) [compound 29] | > 12000 nM |  |  | > 4000 nM | 
CC1(CCC(=O)N2CCN(c3ccccc3F)CC2)NC(=O)NC1=O (stereo not drawn) [compound 30, 5-[3-[4-(2-fluorophenyl)piperazin-1-yl]-3-oxo-propyl]-5-methyl-imidazolidine-2,4-dione] | > 4000 nM |  |  | > 4000 nM | 
Cc1ccccc1N1CCN(C(=O)CCC2(C(C)C)NC(=O)NC2=O)CC1 (stereo not drawn) [compound 32, 5-isopropyl-5-[3-[4-(o-tolyl)piperazin-1-yl]-3-oxo-propyl]imidazolidine-2,4-dione] | 385 nM |  | > 4000 nM |  | 
CC1(CCC(=O)N2CCN(c3ccc(F)c(F)c3)CC2)NC(=O)NC1=O (stereo not drawn) [compound 37, 5-[3-[4-(3,4-difluorophenyl)piperazin-1-yl]-3-oxo-propyl]-5-methyl-imidazolidine-2,4-dione] | 229 nM |  | > 20000 nM |  | 
Cc1ccc(C)c(N2CCN(C(=O)CCC3(C)NC(=O)NC3=O)CC2)c1 (stereo not drawn) [compound 39, 5-[3-[4-(2,5-dimethylphenyl)piperazin-1-yl]-3-oxo-propyl]-5-methyl-imidazolidine-2,4-dione] | 570 nM |  | 588 nM |  | 
CC1(CCC(=O)N2CCN(c3cccnc3)CC2)NC(=O)NC1=O (stereo not drawn) [compound 43, 5-methyl-5-[3-oxo-3-[4-(3-pyridyl)piperazin-1-yl]propyl]imidazolidine-2,4-dione] | 1530 nM |  | > 20000 nM |  | > 20000 nM
O=C1NC(=O)C(CCC(=O)N2CCN(c3cccnc3)CC2)(c2ccccc2)N1 (stereo not drawn) [compound 45, 5-[3-oxo-3-[4-(3-pyridyl)piperazin-1-yl]propyl]-5-phenyl-imidazolidine-2,4-dione] | 204 nM |  | > 20000 nM |  | 
CC1(CCC(=O)N2CCN(c3ccc(F)c(Cl)c3)CC2)NC(=O)NC1=O (stereo not drawn) [compound 52, 5-[3-[4-(3-chloro-4-fluoro-phenyl)piperazin-1-yl]-3-oxo-propyl]-5-methyl-imidazolidine-2,4-dione] | 281 nM |  | > 20000 nM |  | 
Cc1c(F)cccc1N1CCN(C(=O)CCC2(C)NC(=O)NC2=O)CC1 (stereo not drawn) [compound 60, 5-[3-[4-(3-fluoro-2-methyl-phenyl)piperazin-1-yl]-3-oxo-propyl]-5-methyl-imidazolidine-2,4-dione] | 1160 nM |  | > 20000 nM |  | > 20000 nM
CC1CN(C(=O)CCC2(c3ccccc3)NC(=O)NC2=O)CCN1c1ccccc1 (stereo not drawn) [compound 62, 5-[3-(3-methyl-4-phenyl-piperazin-1-yl)-3-oxo-propyl]-5-phenyl-imidazolidine-2,4-dione] | 293 nM |  | > 20000 nM |  | 
CC1CN(C(=O)CCC2(C)NC(=O)NC2=O)CCN1c1ccccc1 (stereo not drawn) [compound 63, 5-methyl-5-[3-(3-methyl-4-phenyl-piperazin-1-yl)-3-oxo-propyl]imidazolidine-2,4-dione] | 1240 nM |  | > 20000 nM |  | 
CC1(CCC(=O)N2CCN(c3ccc(Cl)c(Cl)c3)CC2)NC(=O)NC1=O (stereo not drawn) [compound 67, 5-[3-[4-(3,4-dichlorophenyl)piperazin-1-yl]-3-oxo-propyl]-5-methyl-imidazolidine-2,4-dione] | 152 nM |  | > 4000 nM |  | > 3500 nM

Structure (SMILES) | IC50 (human ADAMTS-5 [1]) | IC50 (rnADAMTS-5 (1-564-6H)) | IC50 (human TACE) | IC50 (human ADAMTS-5 [2]) | IC50 (human MMP13)
O=C1NC(=O)C(CCC(=O)N2CCN(c3ccccc3)CC2)(c2cccnc2)N1 (stereo not drawn) [compound 68, 5-[3-oxo-3-(4-phenylpiperazin-1-yl)propyl]-5-(3-pyridyl)imidazolidine-2,4-dione] | 169 nM | 200 nM |  |  | 
Cc1cccc(N2CCN(C(=O)CCC3(c4cccnc4)NC(=O)NC3=O)CC2)c1C (stereo not drawn) [compound 69, 5-[3-[4-(2,3-dimethylphenyl)piperazin-1-yl]-3-oxo-propyl]-5-(3-pyridyl)imidazolidine-2,4-dione] | 178 nM | 185 nM |  |  | 
Cc1ccc(Cl)cc1N1CCN(C(=O)CCC2(C3CCC3)NC(=O)NC2=O)CC1 (stereo not drawn) [compound 71, 5-[3-[4-(5-chloro-2-methyl-phenyl)piperazin-1-yl]-3-oxo-propyl]-5-cyclobutyl-imidazolidine-2,4-dione] | 200 nM | 198 nM |  |  | 
O=C1NC(=O)C(CCC(=O)N2CCN(c3cccc(Cl)c3)CC2)(C2CCCCC2)N1 (stereo not drawn) [compound 72, 5-[3-[4-(3-chlorophenyl)piperazin-1-yl]-3-oxo-propyl]-5-cyclohexyl-imidazolidine-2,4-dione] | 264 nM | 282 nM |  |  | 
Cc1ccc(C2(CCC(=O)N3CCN(c4cc(Cl)ccc4C)CC3)NC(=O)NC2=O)cc1 (stereo not drawn) [compound 77, 5-[3-[4-(5-chloro-2-methyl-phenyl)piperazin-1-yl]-3-oxo-propyl]-5-(p-tolyl)imidazolidine-2,4-dione] | 107 nM | 169 nM |  |  | 
CC1(CCC(=O)N2CCN(c3cc(F)cc(Cl)c3)CC2)NC(=O)NC1=O (stereo not drawn) [compound 117, 5-[3-[4-(3-chloro-5-fluoro-phenyl)piperazin-1-yl]-3-oxo-propyl]-5-methyl-imidazolidine-2,4-dione] | 211 nM |  | > 4000 nM |  | > 4000 nM
COc1cccc(C2(CCC(=O)N3CCN(c4cccc(Cl)c4)CC3)NC(=O)NC2=O)c1 (stereo not drawn) [compound 123, 5-[3-[4-(3-chlorophenyl)piperazin-1-yl]-3-oxo-propyl]-5-(3-methoxyphenyl)imidazolidine-2,4-dione] | 95 nM |  | 1640 nM |  | 919 nM
N#Cc1ccc(C2(CCC(=O)N3CCN(c4cccc(Cl)c4)CC3)NC(=O)NC2=O)cc1 (stereo not drawn) [compound 125, 4-[4-[3-[4-(3-chlorophenyl)piperazin-1-yl]-3-oxo-propyl]-2,5-dioxo-imidazolidin-4-yl]benzonitrile] | 53 nM |  | 1800 nM |  | 2120 nM
CC1CN(C(=O)CCC2(c3cccnc3)NC(=O)NC2=O)CCN1c1ccc(Cl)cc1 (stereo not drawn) [compound 126, 5-[3-[4-(4-chlorophenyl)-3-methyl-piperazin-1-yl]-3-oxo-propyl]-5-(3-pyridyl)imidazolidine-2,4-dione] | 106 nM |  | > 4000 nM |  | > 4000 nM
C[C@@H]1CN(C(=O)CCC2(C3CC3)NC(=O)NC2=O)CCN1c1ccccc1 (stereo partly drawn) [compound 128, 5-cyclopropyl-5-[3-[(3R)-3-methyl-4-phenyl-piperazin-1-yl]-3-oxo-propyl]imidazolidine-2,4-dione] | 1170 nM |  | > 20000 nM |  | > 20000 nM
Cc1ccc(F)cc1N1CCN(C(=O)CCC2(C3CC3)NC(=O)NC2=O)CC1C (stereo not drawn) [compound 129, 5-cyclopropyl-5-[3-[4-(5-fluoro-2-methyl-phenyl)-3-methyl-piperazin-1-yl]-3-oxo-propyl]imidazolidine-2,4-dione] | 150 nM |  | > 4000 nM |  | > 20000 nM
CC1CN(C(=O)CCC2(C3CC3)NC(=O)NC2=O)CCN1c1cc(Cl)cc(Cl)c1 (stereo not drawn) [compound 130, 5-cyclopropyl-5-[3-[4-(3,5-dichlorophenyl)-3-methyl-piperazin-1-yl]-3-oxo-propyl]imidazolidine-2,4-dione] | 126 nM |  | > 4000 nM |  | > 20000 nM
COc1ccc(Cl)cc1C1(CCC(=O)N2CCN(c3cccc(Cl)c3)CC2)NC(=O)NC1=O (stereo not drawn) [compound 132, 5-(5-chloro-2-methoxy-phenyl)-5-[3-[4-(3-chlorophenyl)piperazin-1-yl]-3-oxo-propyl]imidazolidine-2,4-dione] | 37 nM |  | 348 nM |  | 3290 nM
COc1ccc(Cl)cc1C1(CCC(=O)N2CCN(c3cc(Cl)ccc3C)CC2)NC(=O)NC1=O (stereo not drawn) [compound 133, 5-(5-chloro-2-methoxy-phenyl)-5-[3-[4-(5-chloro-2-methyl-phenyl)piperazin-1-yl]-3-oxo-propyl]imidazolidine-2,4-dione] | 108 nM |  | 195 nM |  | > 20000 nM
C[C@@H]1CN(C(=O)CCC2(c3cccnc3)NC(=O)NC2=O)CCN1c1ccccc1 (stereo partly drawn) [compound 134, 5-[3-[(3R)-3-methyl-4-phenyl-piperazin-1-yl]-3-oxo-propyl]-5-(3-pyridyl)imidazolidine-2,4-dione] | 1870 nM |  | > 20000 nM |  | > 20000 nM
Cc1c(Cl)cc(Cl)cc1N1CCN(C(=O)CCC2(C)NC(=O)NC2=O)CC1 (stereo not drawn) [compound 139, 5-[3-[4-(3,5-dichloro-2-methyl-phenyl)piperazin-1-yl]-3-oxo-propyl]-5-methyl-imidazolidine-2,4-dione] | 231 nM |  | 1320 nM |  | > 20000 nM
